From patent publication US11834672B2, “Method for producing hypophysis precursor tissue” (RIKEN, priority 2011, dated 2023)
Entries after “also recorded” stand apart in the source; their conditions may differ. Ends that are not written are not given here.

What was measured:
[1] = tested on: ES cell-derived pituitary precursor tissue; assay: Differentiation of ES cell-derived pituitary precursor tissue into GH-, PRL-, LH-, FSH-, TSH-positive cells; assay type: cell-based, mouse
Procedure: Mouse ES cells were differentiated into pituitary precursor tissues by an SAG treatment (400 nM for 7 days and 100 nM for 3 days, total 10 days) using the method of Example 2. Furthermore, the aggregates were continuously floating-cultured under 40% O2 and 5% CO2. The medium used was gfCDM comprising corticosteroid (200 ng/ml hydrocortisone) and 1 nM insulin, gfCDM comprising estrogen (50 ng/ml estradiol) and 1 nM insulin, or culture supernatant (conditioned medium) of mouse feeder cell, PA6 cell, in gfCDM.
The expression of growth hormone (GH), prolactin (PRL), luteinizing hormone (LH), follicle-stimulating hormone (FSH), and thyroid-stimulating hormone (TSH) was confirmed by cytochemical staining of frozen section by the fluorescence antibody method.

[2] = tested on: ES cell-derived pituitary precursor tissue; assay: Differentiation of ES cell-derived pituitary precursor tissue into ACTH-producing cells, fluorescence antibody staining; assay type: cell-based, mouse; conditions: for expression of Pitx1: DAPT, BIO or IWP2 treatment, day 26 (FIG. 3k)
Procedure: Furthermore, using gfCDM medium, the aggregates were cultured under 40% O2 and 5% CO2 for 12 days in total (total 22 days). Moreover, the aggregates were treated with Notch signal inhibitor, 10 μM DAPT, for one day during days 18-19 or days 20-21 of culture.

hedgehog signaling = conditions: cited from earlier work
[3] = tested on: mouse ES cell aggregates (10000 cells per aggregate); assay: Induction of pituitary precursor tissue (Lim3) in mouse ES cell aggregates by hedgehog signal treatment; assay type: cell-based
Procedure: Aggregates of mouse ES cells were formed from 10000 cells per aggregate by using the SFEBq/gfCDM method (Wataya et al, 2008, PNAS vol. 105, pp. 11796-11801), and subjected to the floating-culture as in Example 1. Immediately after the start of the differentiation culture, SAG (Danjo et al, JNS, 2011, vol. 31, pp. 1919-1933), a hedgehog agonist, was added at 100 or 400 nM, and the aggregates were cultured for a total of 10-13 days. […] The expression of Lim3, a marker of pituitary precursor tissue (Rathke's pouch), and the like was confirmed by PCR or cytochemical staining of frozen section by the fluorescence antibody method. The expression of Lim3 was also confirmed using Lim3::GFP knocked-in ES cells.

[4] = tested on: ES cell-derived ACTH-producing cells; assay: In vitro ACTH secretion from ES cell-derived ACTH-producing cells by CRH, ELISA of culture supernatant; assay type: cell-based, mouse
[5] = tested on: ES cell-derived ACTH-producing cells; assay: as above; assay type: cell-based, mouse; conditions: 10 min, SAG- and DAPT-treated aggregates
Procedure: Mouse ES cells were differentiated into ACTH-producing cells by a SAG treatment and a DAPT treatment (total 22 days) using the method of Example 3. The aggregates were treated with CRH (corticotropin releasing factor) and ACTH secretion was quantified. To be specific, eight aggregates were placed in 500 μl of HBSS solution and, after pre-incubation at 37° C. for 10 min, CRH was added at a final concentration of 10-10000 ng/ml, and the aggregates were incubated for 10 min. Then, the culture supernatant was recovered and measured by ELISA method (FIG. 4a).

mouse ES cell aggregates = assay: SFEBq/gfCDM floating culture of mouse ES cell aggregates, non-neural head ectoderm marker Pitx2 by qPCR; assay type: cell-based; conditions: BMP4 0.5 nM added to the medium, SFEBq/CDM-cultured ESCs
human ES cells = assay: Floating aggregate culture of human ES cells with BMP4 and SAG, Pitx1 by qPCR and marker staining; assay type: cell-based; conditions: for E-cad positive non-neural ectoderm morphology: BMP-treated group, day 25 of culture
Procedure: Human ES cells (12000 cells) dispersed into single-cells with trypsin were subjected to floating aggregate culture in the presence of a […] ROCK inhibitor Y-27632 (Watanabe et al, Nature Neuroscience, 2007) in the same manner as in Example 1. The culture medium used was gfCDM added with 5% KSR. From day 3 of culture, 0.5 nM, 1.5 nM or 5.0 nM BMP4 was added to the culture medium, 1000 nM SAG was added from day 6 of culture, and the floating-culture was continued.

[6] = SAG 100 or 400 nM, PCR on day 10 and later

Molecule: O=C1Nc2cc(Br)ccc2/C1=C1/Nc2ccccc2/C1=N\O [BIO, 6-bromoindirubin-3′-oxime]
- further increase of GH-positive cells ([1]; BIO 250 nM during days 16-18 of culture, then hydrocortisone and insulin): 30-50%
- expression of Pitx1 [2]: greatly increased

Molecule: C[C@H](NC(=O)Cc1cc(F)cc(F)c1)C(=O)N[C@H](C(=O)OC(C)(C)C)c1ccccc1 [DAPT]
- expression of Tbx19 compared to without DAPT treatment ([2]; 10 μM DAPT for one day, days 18-19 or 20-21, SAG-treated aggregates): enhanced Tbx19 expression
- percentage of ACTH-positive cells ([2]; 10 μM DAPT for one day, day 22): increased percentage
- size of assemblies of Tbx19- and ACTH-highly positive cells ([2]; 10 μM DAPT treatment, assemblies in plural sites): > 30 cells
- expression of Pitx1 [2]: did not increase, or rather decreased

Molecule: Cc1ccc2nc(NC(=O)CSc3nc4c(c(=O)n3-c3ccccc3)SCC4)sc2c1 [IWP2]
- expression of Pitx1 [2]: tended to decrease

Molecule: CNC1CCC(N(Cc2cccc(-c3ccncc3)c2)C(=O)c2sc3ccccc3c2Cl)CC1 (stereo not drawn) [SAG]
- activity compared with Shh (hedgehog signaling): several-fold stronger activity than Shh
- gene expression of Lim3 relative to SAG non-addition group [3, 6]: 7 fold
- gene expression of Lim3 relative to undifferentiated ES cells [3, 6]: 15 fold
- number of Lim3-positive epithelial pouch vesicles formed in the aggregate ([3]; SAG-addition group, further 3 days in gfCDM, total 13 days): 1-7

Molecule: Cc1nn(-c2ccccc2)c(C)c1/C=N/N1CCN(Cc2ccccc2)CC1 [SANT-1]
- effect on SAG induction of Lim3 ([3]; hedgehog receptor antagonist added to SAG-treated aggregates): inhibited

Molecule: C[C@]12CCC(=O)C=C1CC[C@@H]1[C@@H]2[C@@H](O)C[C@@]2(C)[C@H]1CC[C@]2(O)C(=O)CO [hydrocortisone]
- effect of pre-treatment on the ACTH secretion promoting effect of CRH ([4]; hydrocortisone 100 ng/ml pre-treatment for 60 min): suppressed almost completely; also recorded: suppressed the enhancement of ACTH secretion by CRH
- GH-positive cells in the aggregate ([1]; gfCDM with 200 ng/ml hydrocortisone and 1 nM insulin for 10 days from day 20): many GH-positive cells

Molecule: CRH: corticotropin releasing factor, hypothalamic hormone promoting ACTH secretion (SEEPPISLDLTFHLLREVLEMARAEQLAQQAHSNRKLMEII; ends and bridges not checked; UniProt P06850 154-194, looked up)
- ACTH secretion ([4]; 1000 ng/ml CRH, aggregates without SAG treatment): did not show a significant increase
- ACTH secretion ([4]; CRH added, aggregates with SAG treatment but without DAPT treatment): did not show much increase
- induction of ACTH secretion by releasing hormones ([4]; SAG- and DAPT-treated aggregates (FIG. 4b)): CRH-specific; also recorded: enhancement of ACTH secretion
- ACTH concentration of the culture supernatant ([5]; 10 ng/ml CRH): 1.4 pg/mL
- ACTH concentration of the culture supernatant ([5]; 100 ng/ml CRH): 4 pg/mL
- ACTH concentration of the culture supernatant ([5]; 1000 ng/ml CRH): 8.5 to 9.5 pg/mL
- ACTH concentration of the culture supernatant ([5]; 10000 ng/ml CRH): 8.5 to 9.5 pg/mL

B1: FGF8: FGF signal promoter (protein, UniProt P55075 23-233, looked up)
Fibroblast growth factor 8: QEGPGRGPALGRELASLFRAGREPQGVSQQHVREQSLVTDQLSRRLIRTYQLYSRTSGKHVQVLANKRINAMAEDGDPFAKLIVETDTFGSRVRVRGAETGLYICMNKKGKLIAKSNGKGKDCVFTEIVLENNYTALQNAKYEGWYMAFTRKGRPRKGSKTRQHQREVHFMKRLPRGHHTTEQSLRFEFLNYPPFTRSLRGSQRTWAPEPR
- increase of tissues expressing Lim3 ([3]; FGF8 200 ng/ml during day 10-13, gfCDM without SAG): 30-50%

B2: BMP4: Bone Morphogenetic protein of the BMP2/4 group; exogenous BMP signal promoter (protein, UniProt P12644 293-408, looked up)
Bone morphogenetic protein 4: SPKHHSQRARKKNKNCRRHSLYVDFSDVGWNDWIVAPPGYQAFYCHGDCPFPLADHLNSTNHAIVQTLVNSVNSSIPKACCVPTELSAISMLYLDEYDKVVLKNYQEMVVEGCGCR
- expression of Pitx2 (mouse ES cell aggregates): increases; also recorded: elevation of Pitx2 expression
- expression of Pitx1 compared to the group without the treatment (human ES cells; 5 nM BMP4 from day 3, 12000 cells/aggregate, qPCR day 17): about 10 fold
- result when started from 3000 and 6000 human ES cells (human ES cells; BMP4 added to the medium): equivalent results were obtained
- E-cad positive non-neural ectoderm morphology (human ES cells): formation of E-cadherin^+ thickened non-neural ectoderm
- E-cad positive non-neural ectoderm morphology (human ES cells; listed as BMP): a part thereof was thickened to show a placode-like structure
